pEC50: −log10 of the molar value.
Molecular target: human APJ receptor (Homo sapiens (Human), UniProt P35414)
Experiment: [35S]GTPγS binding assay on membranes from CHO cells stably expressing human APJ receptor
Type: biochemical
Details: read-out: Activity hAPJ SPA EC50 IP
How it was run: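 Membranes from CHO cells stably expressing human APJ incubated with ligand, 0.2 nM [35S]GTPγS and WGA SPA beads in HEPES pH 7.5 with 5 mM MgCl2, 200 mM NaCl, 3 μM GDP, 90 min at RT. Nonspecific binding defined with 100 μM GTPγS; EC50 by non-linear regression.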

Sequence of human APJ receptor (P35414 whole entry): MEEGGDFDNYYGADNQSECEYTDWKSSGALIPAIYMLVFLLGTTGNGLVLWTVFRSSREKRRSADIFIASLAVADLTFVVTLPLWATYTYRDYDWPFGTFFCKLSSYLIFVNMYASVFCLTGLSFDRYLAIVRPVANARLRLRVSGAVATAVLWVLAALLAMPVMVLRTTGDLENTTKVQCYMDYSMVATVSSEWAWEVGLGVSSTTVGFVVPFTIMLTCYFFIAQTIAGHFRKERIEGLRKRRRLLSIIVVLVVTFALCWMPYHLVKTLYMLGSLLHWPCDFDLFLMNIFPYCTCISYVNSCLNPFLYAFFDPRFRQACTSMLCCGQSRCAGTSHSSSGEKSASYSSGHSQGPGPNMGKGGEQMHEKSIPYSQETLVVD

pEC50	Substance
7.28	(2S,3R)-3-(5-chloropyrimidin-2-yl)-N-(4-(4,6-dimethoxypyrimidin-5-yl)-5-((R)-5,5-dimethyltetrahydrofuran-3-yl)-4H-1,2,4-triazol-3-yl)butane-2-sulfonamide or (2S,3R)-3-(5-chloropyrimidin-2-yl)-N-(4-(4,6-dimethoxypyrimidin-5-yl)-5-((S)-5,5-dimethyltetrahydrofuran-3-yl)-4H-1,2,4-triazol-3-yl)butane-2-sulfonamide [Example 317.0]
7.89	(2S,3R)-3-(5-chloropyrimidin-2-yl)-N-(4-(4,6-dimethoxypyrimidin-5-yl)-5-((R)-5,5-dimethyltetrahydrofuran-3-yl)-4H-1,2,4-triazol-3-yl)butane-2-sulfonamide or (2S,3R)-3-(5-chloropyrimidin-2-yl)-N-(4-(4,6-dimethoxypyrimidin-5-yl)-5-((S)-5,5-dimethyltetrahydrofuran-3-yl)-4H-1,2,4-triazol-3-yl)butane-2-sulfonamide [Example 318.0]
7.00	(2S,3R)-N-(4-(1,3-dimethoxy-2-propanyl)-5-((2R,5R)-5-methyltetrahydro-2-furanyl)-4H-1,2,4-triazol-3-yl)-3-(5-fluoro-2-pyrimidinyl)-2-butanesulfonamide or (2S,3R)-N-(4-(1,3-dimethoxy-2-propanyl)-5-((2S,5S)-5-methyltetrahydro-2-furanyl)-4H-1,2,4-triazol-3-yl)-3-(5-fluoro-2-pyrimidinyl)-2-butanesulfonamide [Example 368.0]
7.68	(2S,3R)-N-(4-(1,3-dimethoxy-2-propanyl)-5-((2R,5R)-5-methyltetrahydro-2-furanyl)-4H-1,2,4-triazol-3-yl)-3-(5-fluoro-2-pyrimidinyl)-2-butanesulfonamide or (2S,3R)-N-(4-(1,3-dimethoxy-2-propanyl)-5-((2S,5S)-5-methyltetrahydro-2-furanyl)-4H-1,2,4-triazol-3-yl)-3-(5-fluoro-2-pyrimidinyl)-2-butanesulfonamide [Example 369.0]
6.92	(2S,3R)-N-(4-(1,3-dimethoxy-2-propanyl)-5-((2R,5R)-5-methyltetrahydro-2-furanyl)-4H-1,2,4-triazol-3-yl)-3-(5-methoxy-2-pyrazinyl)-2-butanesulfonamide or (2S,3R)-N-(4-(1,3-dimethoxy-2-propanyl)-5-((2S,5S)-5-methyltetrahydro-2-furanyl)-4H-1,2,4-triazol-3-yl)-3-(5-methoxy-2-pyrazinyl)-2-butanesulfonamide [Example 376.0]
7.62	(2S,3R)-N-(4-(1,3-dimethoxy-2-propanyl)-5-((2R,5R)-5-methyltetrahydro-2-furanyl)-4H-1,2,4-triazol-3-yl)-3-(5-methoxy-2-pyrazinyl)-2-butanesulfonamide or (2S,3R)-N-(4-(1,3-dimethoxy-2-propanyl)-5-((2S,5S)-5-methyltetrahydro-2-furanyl)-4H-1,2,4-triazol-3-yl)-3-(5-methoxy-2-pyrazinyl)-2-butanesulfonamide [Example 377.0]
6.21	(2S,3R)-N-(4-(1,3-dimethoxy-2-propanyl)-5-((2R,5R)-5-methyltetrahydro-2-furanyl)-4H-1,2,4-triazol-3-yl)-3-(5-methoxy-2-pyrimidinyl)-2-butanesulfonamide or (2S,3R)-N-(4-(1,3-dimethoxy-2-propanyl)-5-((2S,5S)-5-methyltetrahydro-2-furanyl)-4H-1,2,4-triazol-3-yl)-3-(5-methoxy-2-pyrimidinyl)-2-butanesulfonamide [Example 370.0]
7.82	(2S,3R)-N-(4-(1,3-dimethoxy-2-propanyl)-5-((2R,5R)-5-methyltetrahydro-2-furanyl)-4H-1,2,4-triazol-3-yl)-3-(5-methoxy-2-pyrimidinyl)-2-butanesulfonamide or (2S,3R)-N-(4-(1,3-dimethoxy-2-propanyl)-5-((2S,5S)-5-methyltetrahydro-2-furanyl)-4H-1,2,4-triazol-3-yl)-3-(5-methoxy-2-pyrimidinyl)-2-butanesulfonamide [Example 371.0]
7.82	(2S,3R)-N-(4-(2,6-bis((trideutero)methyloxy)phenyl)-5-((3R)-tetrahydro-3-furanyl)-4H-1,2,4-triazol-3-yl)-3-(5-chloro-2-pyrimidinyl)-2-butanesulfonamide or (2S,3R)-N-(4-(2,6-bis((trideutero)methyloxy)phenyl)-5-((3S)-tetrahydro-3-furanyl)-4H-1,2,4-triazol-3-yl)-3-(5-chloro-2-pyrimidinyl)-2-butanesulfonamide [Example 391.0]
7.60	(2S,3R)-N-(4-(2,6-bis((tridutero)methyloxy)phenyl)-5-((3R)-tetrahydro-3-furanyl)-4H-1,2,4-triazol-3-yl)-3-(5-chloro-2-pyrimidinyl)-2-butanesulfonamide or (2S,3R)-N-(4-(2,6-bis((trideutero)methyloxy)phenyl)-5-((3S)-tetrahydro-3-furanyl)-4H-1,2,4-triazol-3-yl)-3-(5-chloro-2-pyrimidinyl)-2-butanesulfonamide [Example 392.0]
6.80	(2S,3R)-N-(4-(2,6-difluorophenyl)-5-((3R)-tetrahydro-3-furanyl)-4H-1,2,4-triazol-3-yl)-3-(5-methyl-2-pyrimidinyl)-2-butanesulfonamide or (2S,3R)-N-(4-(2,6-difluorophenyl)-5-((3S)-tetrahydro-3-furanyl)-4H-1,2,4-triazol-3-yl)-3-(5-methyl-2-pyrimidinyl)-2-butanesulfonamide [Example 20.0]
6.96	(2S,3R)-N-(4-(2,6-difluorophenyl)-5-((3R)-tetrahydro-3-furanyl)-4H-1,2,4-triazol-3-yl)-3-(5-methyl-2-pyrimidinyl)-2-butanesulfonamide or (2S,3R)-N-(4-(2,6-difluorophenyl)-5-((3S)-tetrahydro-3-furanyl)-4H-1,2,4-triazol-3-yl)-3-(5-methyl-2-pyrimidinyl)-2-butanesulfonamide [Example 21.0]
6.59	(2S,3R)-N-(4-(2,6-difluorophenyl)-5-((3S)-tetrahydro-2H-pyran-3-yl)-4H-1,2,4-triazol-3-yl)-3-(5-methyl-2-pyrimidinyl)-2-butanesulfonamide or (2S,3R)-N-(4-(2,6-difluorophenyl)-5-((3R)-tetrahydro-2H-pyran-3-yl)-4H-1,2,4-triazol-3-yl)-3-(5-methyl-2-pyrimidinyl)-2-butanesulfonamide [Example 22.0]
6.96	(2S,3R)-N-(4-(2,6-difluorophenyl)-5-((3S)-tetrahydro-2H-pyran-3-yl)-4H-1,2,4-triazol-3-yl)-3-(5-methyl-2-pyrimidinyl)-2-butanesulfonamide or (2S,3R)-N-(4-(2,6-difluorophenyl)-5-((3R)-tetrahydro-2H-pyran-3-yl)-4H-1,2,4-triazol-3-yl)-3-(5-methyl-2-pyrimidinyl)-2-butanesulfonamide [Example 23.0]
5.86	(2S,3R)-N-(4-(2,6-dimethoxyphenyl)-5-((R)-1,1-dioxidotetahydrothiophen-3-yl)-4H-1,2,4-triazol-3-yl)-3-(5-methylpyrimidin-2-yl)butane-2-sulfonamide or (2S,3R)-N-(4-(2,6-dimethoxyphenyl)-5-((S)-1,1-dioxidotetrahydrothiophen-3-yl)-4H-1,2,4-triazol-3-yl)-3-(5-methylpyrimidin-2-yl)butane-2-sulfonamide [Example 184.0]
5.97	(2S,3R)-N-(4-(2,6-dimethoxyphenyl)-5-((R)-1,1-dioxidotetrahydrothiophen-3-yl)-4H-1,2,4-triazol-3-yl)-3-(5-methylpyrimidin-2-yl)butane-2-sulfonamide or (2S,3R)-N-(4-(2,6-dimethoxyphenyl)-5-((S)-1,1-dioxidotetrahydrothiophen-3-yl)-4H-1,2,4-triazol-3-yl)-3-(5-methylpyrimidin-2-yl)butane-2-sulfonamide [Example 183.0]
8.32	(2S,3R)-N-(4-(2,6-dimethoxyphenyl)-5-((R)-1,4-dioxan-2-yl)-4H-1,2,4-triazol-3-yl)-3-(5-methoxypyrazin-2-yl)butane-2-sulfonamide or (2S,3R)-N-(4-(2,6-dimethoxyphenyl)-5-((S)-1,4-dioxan-2-yl)-4H-1,2,4-triazol-3-yl)-3-(5-methoxypyrazin-2-yl)butane-2-sulfonamide [Example 207.0]
7.70	(2S,3R)-N-(4-(2,6-dimethoxyphenyl)-5-((R)-1,4-dioxan-2-yl)-4H-1,2,4-triazol-3-yl)-3-(5-methoxypyrazin-2-yl)butane-2-sulfonamide or (2S,3R)-N-(4-(2,6-dimethoxyphenyl)-5-((S)-1,4-dioxan-2-yl)-4H-1,2,4-triazol-3-yl)-3-(5-methoxypyrazin-2-yl)butane-2-sulfonamide [Example 208.0]
7.72	(2S,3R)-N-(4-(2,6-dimethoxyphenyl)-5-((R)-1,4-dioxan-2-yl)-4H-1,2,4-triazol-3-yl)-3-(5-methylpyrimidin-2-yl)butane-2-sulfonamide or (2S,3R)-N-(4-(2,6-dimethoxyphenyl)-5-((S)-1,4-dioxan-2-yl)-4H-1,2,4-triazol-3-yl)-3-(5-methylpyrimidin-2-yl)butane-2-sulfonamide [Example 205.0]
7.92	(2S,3R)-N-(4-(2,6-dimethoxyphenyl)-5-((S)-tetrahydrothiophen-2-yl)-4H-1,2,4-triazol-3-yl)-3-(5-methylpyrimidin-2-yl)butane-2-sulfonamide or (2S,3R)-N-(4-(2,6-dimethoxyphenyl)-5-((R)-tetrahydrothiophen-2-yl)-4H-1,2,4-triazol-3-yl)-3-(5-methylpyrimidin-2-yl)butane-2-sulfonamide [Example 223.0]
